In patent US9643974B2, “Amino-substituted imidazopyridazines” (Bayer Intellectual Property GmbH, priority 2011, dated 2017):
pIC50: −log10 of the molar value. Where a name gives a salt, the structure may show the parent alone.

Legend:
human full-lengt MKNK1 = molecular target: T1, human full-lengt MKNK1 (Homo sapiens, UniProt Q9BUB5, T385D); experiment: MKNK1 kinase assay (MKNK1 TR-FRET assay); format: biochemical; conditions: ATP final conc. 10 μM, 15 min preincubation, 45 min reaction at 22° C.
T1 construct: purchased Carna Biosciences 02-145; host or cells: insect cells (baculovirus expression system)
T1 sequence (Q9BUB5 1-424 isoform Q9BUB5-2 T344D): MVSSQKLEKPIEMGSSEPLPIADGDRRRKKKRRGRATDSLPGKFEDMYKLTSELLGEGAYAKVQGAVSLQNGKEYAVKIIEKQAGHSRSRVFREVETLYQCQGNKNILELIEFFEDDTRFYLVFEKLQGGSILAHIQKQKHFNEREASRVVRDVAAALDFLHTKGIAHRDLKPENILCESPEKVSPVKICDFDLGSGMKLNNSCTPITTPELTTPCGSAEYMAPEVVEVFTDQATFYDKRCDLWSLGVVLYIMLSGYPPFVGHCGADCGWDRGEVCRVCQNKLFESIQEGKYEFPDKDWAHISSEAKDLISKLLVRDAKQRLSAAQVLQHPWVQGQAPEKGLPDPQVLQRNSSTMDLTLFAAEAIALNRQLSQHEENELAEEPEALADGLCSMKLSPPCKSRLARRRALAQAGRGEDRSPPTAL
Text: MKNK1-inhibitory activity of compounds of the present invention was quantified employing the MKNK1 TR-FRET assay as described in the following paragraphs.
(§1) A recombinant fusion protein of Glutathione-S-Transferase (GST, N-terminally) and human full-lengt MKNK1 (amino acids 1-424 and T344D of accession number BAA 19885.1), expressed in insect cells using baculovirus expression system and purified via glutathione sepharose affinity chromatography, was purchased from Carna Biosciences (product no 02-145) and used as enzyme. As substrate for the kinase reaction the biotinylated peptide biotin-Ahx-IKKRKLTRRKSLKG (C-terminus in amide form) was used which can be purchased e.g. form the company Biosyntan (Berlin-Buch, Germany).
(§2) For the assay 50 nL of a 100 fold concentrated solution of the test compound in DMSO was pipetted into a black low volume 384 well microtiter plate (Greiner Bio-One, Frickenhausen, Germany), 2 μL of a solution of MKNK1 in aqueous assay buffer [50 mM HEPES pH 7.5, 5 mM magnesium chloride, 1.0 mM dithiothreitol, 0.005% (v/v) Nonidet-P40 (Sigma)] was added and the mixture was incubated for 15 min at 22° C. to allow pre-binding of the test compounds to the enzyme before the start of the kinase reaction. Then the kinase reaction was started by the addition of 3 μL of a solution of adenosine-tri-phosphate (ATP, 16.7 μM=>final conc. in the 5 μL assay volume is 10 μM) and substrate (0.1 μM=>final conc. in the 5 μL assay volume is 0.06 μM) in assay buffer and the resulting mixture was incubated for a reaction time of 45 min at 22° C. The concentration of MKNK1 was adjusted depending of the activity of the enzyme lot and was chosen appropriate to have the assay in the linear range, typical concentrations were in the range of 0.05 μg/ml. The reaction was stopped by the addition of 5 μL of a solution of TR-FRET detection reagents (5 nM streptavidine-XL665 [Cisbio Bioassays, Codolet, France] and 1 nM anti-ribosomal protein S6 (pSer236)-antibody from Invitrogen [#44921G] and 1 nM LANCE EU-W1024 labeled ProteinG [Perkin-Elmer, product no. AD0071]) in an aqueous EDTA-solution (100 mM EDTA, 0.1% (w/v) bovine serum albumin in 50 mM HEPES pH 7.5).
The resulting mixture was incubated for 1 h at 22° C. to allow the formation of complex between the phosphorylated biotinylated peptide and the detection reagents. Subsequently the amount of phosphorylated substrate was evaluated by measurement of the resonance energy transfer from the Eu-chelate to the streptavidine-XL. Therefore, the fluorescence emissions at 620 nm and 665 nm after excitation at 350 nm were measured in a TR-FRET reader, e.g. a Rubystar (BMG Labtechnologies, Offenburg, Germany) or a Viewlux (Perkin-Elmer). The ratio of the emissions at 665 nm and at […] was taken as the measure for the amount of phosphorylated substrate. The data were normalised (enzyme reaction without inhibitor=0% inhibition, all other assay components but no enzyme=100% inhibition). Usually the test compounds were tested on the same microtiterplate in 11 different concentrations in the range of 20 μM to 0.1 nM (20 μM, 5.9 μM, 1.7 μM, 0.51 μM, 0.15 μM, 44 nM, 13 nM, 3.8 nM, 1.1 nM, 0.33 nM and 0.1 nM, the dilution series prepared separately before the assay on the level of the 100 fold concentrated solutions in DMSO by serial 1:3.4 dilutions) in duplicate values for each concentration and […] were calculated by a 4 parameter fit.

human full-length MKNK1 = molecular target: T2, human full-length MKNK1 (Homo sapiens, UniProt Q9BUB5, T385D); experiment: MKNK1 kinase high ATP assay (TR-FRET-based); format: biochemical; conditions: ATP final conc. 2 mM, 15 min preincubation, 30 min reaction at 22° C.
T2 construct: purchased Carna Biosciences 02-145; host or cells: insect cells (baculovirus expression system)
T2 sequence (Q9BUB5 1-424 isoform Q9BUB5-2 T344D): as above
Description: MKNK1 Kinase High ATP Assay
MKNK1-inhibitory activity at high ATP of compounds of the present invention after their preincubation with MKNK1 was quantified employing the TR-FRET-based MKNK1 high ATP assay as described in the following paragraphs.
as §1, with “human full-length” for “human full-lengt”, “was used,” for “was used”, “e.g. from” for “e.g. form”
as §2, with “3.3 mM=>final” for “16.7 μM=>final”, “2 mM)” for “10 μM)”, “30” for “45”, “0.003 μg/mL.” for “0.05 μg/ml.”
The resulting mixture was incubated for 1 h at 22° C. to allow the formation of complex between the phosphorylated biotinylated peptide and the detection reagents. Subsequently the amount of phosphorylated substrate was evaluated by measurement of the resonance energy transfer from the Eu-chelate to the streptavidine-XL. Therefore, the fluorescence emissions at 620 nm and 665 nm after excitation at 350 nm were measured in a TR-FRET reader, e.g. a Rubystar (BMG Labtechnologies, Offenburg, Germany) or a Viewlux (Perkin-Elmer). The ratio of the emissions at 665 nm and at […] was taken as the measure for the amount of phosphorylated substrate. The data were normalised (enzyme reaction without inhibitor=0% inhibition, all other assay components but no enzyme=100% inhibition).

## COc1nccc2oc(-c3cnc4ccc(O[C@@H]5CC[C@H](N)C5)nn34)cc12 [Example 18, (1S,3R)-3-{[3-(4-Methoxyfuro[3,2-c]pyridin-2-yl)imidazo[1,2-b]pyridazin-6-yl]-oxy}cyclopentanamine]
Human full-lengt MKNK1
  pIC50: 7.77
Human full-length MKNK1
  pIC50: 7.37

## CC(C)Oc1nccc2oc(-c3cnc4ccc(OC[C@H](C)N)nn34)cc12 [Example 19, (2S)-1-({3-[4-(Propan-2-yloxy)furo[3,2-c]pyridin-2-yl]imidazo[1,2-b]pyridazin-6-yl}oxy)propan-2-amine]
Human full-lengt MKNK1
  pIC50: 7.77
Human full-length MKNK1
  pIC50: 7.47

## C[C@H](N)COc1ccc2ncc(-c3cc4cnccc4o3)n2n1 [Example 20, (2S)-1-{[3-(Furo[3,2-c]pyridin-2-yl)imidazo[1,2-b]pyridazin-6-yl]oxy}propan-2-amine]
Human full-lengt MKNK1
  pIC50: 7.19
Human full-length MKNK1
  pIC50: 6.88

## COc1nccc2oc(-c3cnc4ccc(O[C@H]5CC[C@H](N)CC5)nn34)cc12 [Example 21, trans-4-{[3-(4-Methoxyfuro[3,2-c]pyridin-2-yl)imidazo[1,2-b]pyridazin-6-yl]-oxy}cyclohexanamine salt with formic acid]
Human full-lengt MKNK1
  pIC50: 8.00
Human full-length MKNK1
  pIC50: 7.51

## COc1nccc2oc(-c3cnc4ccc(OCC(C)(C)N)nn34)cc12 [Example 22, 1-{[3-(4-Methoxyfuro[3,2-c]pyridin-2-yl)imidazo[1,2-b]pyridazin-6-yl]oxy}-2-methylpropan-2-amine]
Human full-lengt MKNK1
  pIC50: 7.85
Human full-length MKNK1
  pIC50: 7.10

## COc1nccc2oc(-c3cnc4ccc(OCC(CN)c5ccccc5)nn34)cc12 (centres unmarked) [Example 23, 3-{[3-(4-Methoxyfuro[3,2-c]pyridin-2-yl)imidazo[1,2-b]pyridazin-6-yl]oxy}-2-phenylpropan-1-amine]
Human full-lengt MKNK1
  pIC50: 7.49
Human full-length MKNK1
  pIC50: 7.24

## CC(C)(C)COc1nccc2oc(-c3cnc4ccc(O[C@H]5C[C@H](N)C5)nn34)cc12 [Example 24, trans-3-({3-[4-(2,2-Dimethylpropoxy)furo[3,2-c]pyridin-2-yl]imidazo[1,2-b]-pyridazin-6-yl}oxy)cyclobutanamine]
Human full-lengt MKNK1
  pIC50: 8.52
Human full-length MKNK1
  pIC50: 8.40

## C[C@H](N)COc1ccc2ncc(-c3cc4c(OCC5CC5)nccc4o3)n2n1 [Example 25, (2S)-1-({3-[4-(Cyclopropylmethoxy)furo[3,2-c]pyridin-2-yl]imidazo[1,2-b]-pyridazin-6-yl}oxy)propan-2-amine]
Human full-lengt MKNK1
  pIC50: 7.80
Human full-length MKNK1
  pIC50: 7.55

## C[C@@H](N)COc1ccc2ncc(-c3cc4cnccc4o3)n2n1 [Example 26, (2R)-1-{[3-(Furo[3,2-c]pyridin-2-yl)imidazo[1,2-b]pyridazin-6-yl]oxy}propan-2-amine]
Human full-lengt MKNK1
  pIC50: 7.00
Human full-length MKNK1
  pIC50: 6.67

## COc1nccc2oc(-c3cnc4ccc(OCC5(CN)COC5)nn34)cc12 [Example 27, 1-[3-({[3-(4-Methoxyfuro[3,2-c]pyridin-2-yl)imidazo[1,2-b]pyridazin-6-yl]-oxy}methyl)oxetan-3-yl]methanamine]
Human full-lengt MKNK1
  pIC50: 6.82
Human full-length MKNK1
  pIC50: 6.59

## N[C@H]1C[C@H](Oc2ccc3ncc(-c4cc5ncccc5o4)n3n2)C1 [Example 28, trans-3-{[3-(Furo[3,2-b]pyridin-2-yl)imidazo[1,2-b]pyridazin-6-yl]oxy}cyclobutanamine]
Human full-lengt MKNK1
  pIC50: 8.15
Human full-length MKNK1
  pIC50: 7.89

## N[C@H]1C[C@H](Oc2ccc3ncc(-c4cc5cnccc5o4)n3n2)C1 [Example 29, trans-3-{[3-(Furo[3,2-c]pyridin-2-yl)imidazo[1,2-b]pyridazin-6-yl]oxy}cyclobutanamine]
Human full-lengt MKNK1
  pIC50: 8.10
Human full-length MKNK1
  pIC50: 7.80

## CC(C)[C@H](N)COc1ccc2ncc(-c3cc4cnccc4o3)n2n1 [Example 30, (2S)-1-{[3-(Furo[3,2-c]pyridin-2-yl)imidazo[1,2-b]pyridazin-6-yl]oxy}-3-methylbutan-2-amine]
Human full-lengt MKNK1
  pIC50: 6.86
Human full-length MKNK1
  pIC50: 6.51

## COc1nccc2oc(-c3cnc4ccc(O[C@H]5CCC[C@@H]5N)nn34)cc12 [Example 31, (1S,2S)-2-{[3-(4-Methoxyfuro[3,2-c]pyridin-2-yl)imidazo[1,2-b]pyridazin-6-yl]-oxy}cyclopentanamine]
Human full-lengt MKNK1
  pIC50: 7.89
Human full-length MKNK1
  pIC50: 7.55

## CCOc1nccc2oc(-c3cnc4ccc(OC[C@H](C)N)nn34)cc12 [Example 32, (2S)-1-{[3-(4-Ethoxyfuro[3,2-c]pyridin-2-yl)imidazo[1,2-b]pyridazin-6-yl]oxy}-propan-2-amine]
Human full-lengt MKNK1
  pIC50: 7.85
Human full-length MKNK1
  pIC50: 7.43

## COc1nccc2oc(-c3cnc4ccc(OC(CN)Cc5ccccc5)nn34)cc12 (centres unmarked) [Example 33, 2-{[3-(4-Methoxyfuro[3,2-c]pyridin-2-yl)imidazo[1,2-b]pyridazin-6-yl]oxy}-3-phenylpropan-1-amine]
Human full-lengt MKNK1
  pIC50: 7.00
Human full-length MKNK1
  pIC50: 6.93

## C[C@H](N)COc1ccc2ncc(-c3cc4c(OCC(C)(C)C)nccc4o3)n2n1 [Example 34, (2S)-1-({3-[4-(2,2-Dimethylpropoxy)furo[3,2-c]pyridin-2-yl]imidazo[1,2-b]-pyridazin-6-yl}oxy)propan-2-amine]
Human full-lengt MKNK1
  pIC50: 8.30
Human full-length MKNK1
  pIC50: 7.82

## N[C@H]1C[C@H](Oc2ccc3ncc(-c4cc5c(O)nccc5o4)n3n2)C1 [Example 35, 2-{6-[(trans-3-Aminocyclobutyl)oxy]imidazo[1,2-b]pyridazin-3-yl}furo[3,2-c]-pyridin-4-ol]
Human full-lengt MKNK1
  pIC50: 7.68
Human full-length MKNK1
  pIC50: 7.36

## CCOc1nccc2oc(-c3cnc4ccc(O[C@H]5C[C@H](N)C5)nn34)cc12 [Example 36, trans-3-{[3-(4-Ethoxyfuro[3,2-c]pyridin-2-yl)imidazo[1,2-b]pyridazin-6-yl]oxy}-cyclobutanamine]
Human full-lengt MKNK1
  pIC50: 8.40
Human full-length MKNK1
  pIC50: 8.40
